Source: article PMC6117704, “Novel Natural Angiotensin Converting Enzyme (ACE)-Inhibitory Peptides Derived from Sea Cucumber-Modified Hydrolysates by Adding Exogenous Proline and a Study of Their Structure–Activity Relationship” (Marine Drugs, 2018)
Where two headings read alike, the source gives them in different places. Peptide text beside a SMILES is read from it.

Legend:
rabbit-lung ACE = target: T1, rabbit-lung ACE (Oryctolagus cuniculus, UniProt P12822); experiment: ACE-inhibitory activity of synthetic peptides; type: biochemical; conditions: synthesized peptides; HHL substrate (8.3 mM Hip-His-Leu in 50 mM sodium borate, 0.5 M NaCl, pH 8.3), ACE 25 mU/mL, pre-incubation 37 °C 10 min, 60 min, UV 228 nm; mean ± SD (n = 3)
T1 construct: rabbit-lung ACE and Sephadex G-15 were purchased from Sigma Chemical Ltd; purchased Sigma Chemical Ltd (St. Louis, MO, USA); host or cells: rabbit lung tissue
T1 sequence (P12822 34-1310): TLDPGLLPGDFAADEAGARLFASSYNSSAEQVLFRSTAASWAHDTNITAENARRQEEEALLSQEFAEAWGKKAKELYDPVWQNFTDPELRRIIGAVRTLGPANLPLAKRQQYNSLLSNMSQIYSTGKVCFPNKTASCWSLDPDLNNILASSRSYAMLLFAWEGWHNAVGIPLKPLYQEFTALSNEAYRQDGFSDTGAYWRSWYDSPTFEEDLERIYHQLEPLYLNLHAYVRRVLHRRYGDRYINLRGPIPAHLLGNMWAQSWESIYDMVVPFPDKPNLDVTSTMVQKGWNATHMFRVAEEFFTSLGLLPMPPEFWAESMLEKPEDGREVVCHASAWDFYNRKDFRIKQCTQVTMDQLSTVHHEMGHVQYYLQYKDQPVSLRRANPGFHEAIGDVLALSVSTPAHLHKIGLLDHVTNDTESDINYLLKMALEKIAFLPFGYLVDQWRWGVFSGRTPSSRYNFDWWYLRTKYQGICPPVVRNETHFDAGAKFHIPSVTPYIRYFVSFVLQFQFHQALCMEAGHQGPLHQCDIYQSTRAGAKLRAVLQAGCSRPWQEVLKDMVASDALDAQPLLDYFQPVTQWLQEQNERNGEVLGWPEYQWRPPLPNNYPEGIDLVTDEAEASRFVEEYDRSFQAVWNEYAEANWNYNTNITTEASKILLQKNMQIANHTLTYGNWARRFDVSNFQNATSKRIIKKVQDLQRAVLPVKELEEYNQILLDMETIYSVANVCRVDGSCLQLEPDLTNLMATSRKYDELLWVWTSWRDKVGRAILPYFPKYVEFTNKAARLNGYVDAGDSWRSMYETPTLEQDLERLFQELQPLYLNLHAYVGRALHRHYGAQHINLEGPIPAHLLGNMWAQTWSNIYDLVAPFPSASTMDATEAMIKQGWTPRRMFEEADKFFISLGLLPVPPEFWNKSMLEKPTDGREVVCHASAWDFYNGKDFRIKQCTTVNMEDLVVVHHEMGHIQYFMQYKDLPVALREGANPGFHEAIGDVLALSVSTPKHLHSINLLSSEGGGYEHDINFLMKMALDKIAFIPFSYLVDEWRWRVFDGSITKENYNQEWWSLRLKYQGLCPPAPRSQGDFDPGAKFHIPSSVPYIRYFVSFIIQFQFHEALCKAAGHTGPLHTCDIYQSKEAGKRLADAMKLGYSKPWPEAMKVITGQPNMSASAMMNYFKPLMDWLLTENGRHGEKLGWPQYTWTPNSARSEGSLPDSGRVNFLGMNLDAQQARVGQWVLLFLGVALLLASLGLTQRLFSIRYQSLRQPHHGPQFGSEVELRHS
Protocol: Sea cucumber (Acaudina molpadioidea) was purchased from a local market (Qingdao, China) and its water content was determined to be 12.65% per 20 g on average. Hippuryl histidyl leucine (HHL), rabbit-lung ACE and Sephadex G-15 were purchased from Sigma Chemical Ltd (St. Louis, MO, USA). Papain (from papaya) and trypsin (from bovine sources) were purchased from Nanning Pangbo Biological Engineering Ltd (Nanning, China). O-Pthaldialdehyde (OPA) was purchased from Beijing Soularbio Technology Ltd. (Beijing, China). Proline (PubChem CID 145742), valine (PubChem CID 6287), tyrosine (PubChem CID 6057), tryptophan (PubChem CID 6305), leucine (PubChem CID 6106) and phenylalanine (PubChem CID 6140) were purchased from Sinopharm Chemical Reagent Ltd. (Shanghai, China). All other chemicals were obtained from local commercial sources and were of the highest purity available.
The ACE-inhibitory activity of the hydrolysates was measured according to a previously reported protocol with slight modifications. Briefly, a sample solution with 40 μL of ACE solution (25 mU/mL) was pre-incubated at 37 °C for 10 min. After this, the mixture was incubated with 50 μL of the substrate (8.3 mM Hip-His-Leu in 50 mM sodium borate buffer containing 0.5 M NaCl at pH of 8.3) for 60 min at the same temperature. The reaction was terminated by the addition of 1.0 M HCl (200 μL). The absorbance of hippuric acid in the incubated solution was determined at 228 nm using a UV-spectrophotometer (UV-2550, Shimadzu, Kyoto, Japan). The IC50 value was defined as the concentration of inhibitor that was needed to inhibit 50% of the ACE activity.
The molecular weights of peptides in the filtered hydrolysates were analyzed by MALDI-TOF (TOF 4800, Micromass Company, Manchester, UK). The amino acid sequences were determined in the positive ion mode by de novo sequencing. Subsequently, the peptides were synthesized using the solid phase method and purified by HPLC (ChinaPeptides Co. Ltd., Shanghai, China).

ACE = test system: ACE; set-up: method as in 8 sources, ref [4]; PMID 29426427; doi:10.1016/j.foodchem.2018.01.047; 4. Sangsawad P. Roytrakul S. Choowongkomon K. Kitts D.D. Chen X.M. Meng G. Lichan E. Yongsawatdigul J. Transepithelial transport across Caco-2 cell monolayers of angiotensin converting enzyme (ACE) in ||| ref [20] = [20]; PMID 29426427; doi:10.1016/j.jff.2016.12.005; 20. Sangsawad P. Roytrakul S. Yongsawatdigul J. Angiotensin converting enzyme (ACE) inhibitory peptides derived from the simulated in vitro gastrointestinal digestion of cooked chicken breast J. Funct ||| ref [21] = [21]; doi:10.1016/j.idairyj.2006.05.011; 21. Otte J. Shalaby S.M. Zakora M. Pripp A.H. El-Shabrawy S.A. Angiotensin-converting enzyme inhibitory activity of milk protein hydrolysates: Effect of substrate, enzyme and time of hydrolysis Int. D ||| ref [11] = [11]; doi:10.1080/10942912.2011.642048; 11. Sun H. Li T.J. Zhao X.H. ACE inhibition and enzymatic resistance in vitro of a casein hydrolysate subjected to plastein reaction in the presence of extrinsic proline and ethanol- or methanol-eater ||| ref [26] = [26]; PMID 24054237; doi:10.1016/j.foodchem.2013.07.067; 26. Ngo D.H. Ryu B. Kim S.K. Active peptides from skate ( Okamejei kenojei ) skin gelatin diminish angiotensin-I converting enzyme activity and intracellular free radical-mediated oxidation Food Chem. ||| ...; conditions: cited from earlier work

**Q.** For CC(C)C[C@H](NC(=O)[C@@H](N)CC(N)=O)C(=O)NCC(=O)O [NLG] (H-Asn-Leu-Gly-OH), which IC50 (rabbit-lung ACE) is on record?
**A.** 17.4 ± 0.89 µM

**Q.** With CC(C)[C@H](NC(=O)[C@@H](N)CC(N)=O)C(=O)N[C@@H](C)C(=O)O [NVA] (H-Asn-Val-Ala-OH) as the molecule, how does the IC50 (rabbit-lung ACE) read?
**A.** 12.7 ± 1.5 µM

**Q.** For CC(C)C[C@H](NC(=O)[C@H](CC(N)=O)NC(=O)[C@@H]1CCCN1)C(=O)NCC(=O)O [PNLG] (H-PNLG-OH), which IC50 (rabbit-lung ACE) is on record?
**A.** 13.2 ± 0.39 µM

**Q.** With CC(C)[C@H](NC(=O)[C@H](CC(N)=O)NC(=O)[C@@H]1CCCN1)C(=O)N[C@@H](C)C(=O)O [PNVA] (H-PNVA-OH) as the molecule, how does the IC50 (rabbit-lung ACE) read?
**A.** 8.18 ± 0.24 µM

**Q.** With AGPPGSDGQPGAK as the molecule, how does the IC50 (ACE; ref [38]) read?
**A.** 420 ± 20 µM

**Q.** Which “ACE-inhibitory activity (in words)” value (ACE; ref [20]) does the source give for KPLL here?
**A.** high ACE-inhibitory activity

**Q.** With LGPLGHQ as the molecule, how does the “ACE-inhibitory activity (in words)” value (ACE; ref [26]) read?
**A.** high ACE-inhibitory activity

**Q.** Which “ACE-inhibitory activity (in words)” value (ACE; ref [26]) does the source give for MVGSAPGVL here?
**A.** high ACE-inhibitory activity

**Q.** With VYPFPGPIPNSLPQNIPP as the molecule, how does the “ACE-inhibitory activity (in words)” value (ACE; ref [21]) read?
**A.** high ACE-inhibitory activity
